Experimental data taken from paper PMC10110893, “[…]-derived synthetic cannabinoids inhibit T-type calcium channels with divergent effects on seizures in rodent models of epilepsy” (Frontiers in Physiology, 2023).
Read-outs that look alike come from different tables or passages of the source.

What was measured:
human Cav3.1 = target: T1, human Cav3.1 (Homo sapiens, UniProt O43497); assay: FLIPR calcium flux assay, Cav3.1; assay type: cell-based
T1 construct: expressed in transfected cells; host or cells: HEK293 FlpIn T-Rex cells (Invitrogen)
T1 sequence (O43497 whole entry): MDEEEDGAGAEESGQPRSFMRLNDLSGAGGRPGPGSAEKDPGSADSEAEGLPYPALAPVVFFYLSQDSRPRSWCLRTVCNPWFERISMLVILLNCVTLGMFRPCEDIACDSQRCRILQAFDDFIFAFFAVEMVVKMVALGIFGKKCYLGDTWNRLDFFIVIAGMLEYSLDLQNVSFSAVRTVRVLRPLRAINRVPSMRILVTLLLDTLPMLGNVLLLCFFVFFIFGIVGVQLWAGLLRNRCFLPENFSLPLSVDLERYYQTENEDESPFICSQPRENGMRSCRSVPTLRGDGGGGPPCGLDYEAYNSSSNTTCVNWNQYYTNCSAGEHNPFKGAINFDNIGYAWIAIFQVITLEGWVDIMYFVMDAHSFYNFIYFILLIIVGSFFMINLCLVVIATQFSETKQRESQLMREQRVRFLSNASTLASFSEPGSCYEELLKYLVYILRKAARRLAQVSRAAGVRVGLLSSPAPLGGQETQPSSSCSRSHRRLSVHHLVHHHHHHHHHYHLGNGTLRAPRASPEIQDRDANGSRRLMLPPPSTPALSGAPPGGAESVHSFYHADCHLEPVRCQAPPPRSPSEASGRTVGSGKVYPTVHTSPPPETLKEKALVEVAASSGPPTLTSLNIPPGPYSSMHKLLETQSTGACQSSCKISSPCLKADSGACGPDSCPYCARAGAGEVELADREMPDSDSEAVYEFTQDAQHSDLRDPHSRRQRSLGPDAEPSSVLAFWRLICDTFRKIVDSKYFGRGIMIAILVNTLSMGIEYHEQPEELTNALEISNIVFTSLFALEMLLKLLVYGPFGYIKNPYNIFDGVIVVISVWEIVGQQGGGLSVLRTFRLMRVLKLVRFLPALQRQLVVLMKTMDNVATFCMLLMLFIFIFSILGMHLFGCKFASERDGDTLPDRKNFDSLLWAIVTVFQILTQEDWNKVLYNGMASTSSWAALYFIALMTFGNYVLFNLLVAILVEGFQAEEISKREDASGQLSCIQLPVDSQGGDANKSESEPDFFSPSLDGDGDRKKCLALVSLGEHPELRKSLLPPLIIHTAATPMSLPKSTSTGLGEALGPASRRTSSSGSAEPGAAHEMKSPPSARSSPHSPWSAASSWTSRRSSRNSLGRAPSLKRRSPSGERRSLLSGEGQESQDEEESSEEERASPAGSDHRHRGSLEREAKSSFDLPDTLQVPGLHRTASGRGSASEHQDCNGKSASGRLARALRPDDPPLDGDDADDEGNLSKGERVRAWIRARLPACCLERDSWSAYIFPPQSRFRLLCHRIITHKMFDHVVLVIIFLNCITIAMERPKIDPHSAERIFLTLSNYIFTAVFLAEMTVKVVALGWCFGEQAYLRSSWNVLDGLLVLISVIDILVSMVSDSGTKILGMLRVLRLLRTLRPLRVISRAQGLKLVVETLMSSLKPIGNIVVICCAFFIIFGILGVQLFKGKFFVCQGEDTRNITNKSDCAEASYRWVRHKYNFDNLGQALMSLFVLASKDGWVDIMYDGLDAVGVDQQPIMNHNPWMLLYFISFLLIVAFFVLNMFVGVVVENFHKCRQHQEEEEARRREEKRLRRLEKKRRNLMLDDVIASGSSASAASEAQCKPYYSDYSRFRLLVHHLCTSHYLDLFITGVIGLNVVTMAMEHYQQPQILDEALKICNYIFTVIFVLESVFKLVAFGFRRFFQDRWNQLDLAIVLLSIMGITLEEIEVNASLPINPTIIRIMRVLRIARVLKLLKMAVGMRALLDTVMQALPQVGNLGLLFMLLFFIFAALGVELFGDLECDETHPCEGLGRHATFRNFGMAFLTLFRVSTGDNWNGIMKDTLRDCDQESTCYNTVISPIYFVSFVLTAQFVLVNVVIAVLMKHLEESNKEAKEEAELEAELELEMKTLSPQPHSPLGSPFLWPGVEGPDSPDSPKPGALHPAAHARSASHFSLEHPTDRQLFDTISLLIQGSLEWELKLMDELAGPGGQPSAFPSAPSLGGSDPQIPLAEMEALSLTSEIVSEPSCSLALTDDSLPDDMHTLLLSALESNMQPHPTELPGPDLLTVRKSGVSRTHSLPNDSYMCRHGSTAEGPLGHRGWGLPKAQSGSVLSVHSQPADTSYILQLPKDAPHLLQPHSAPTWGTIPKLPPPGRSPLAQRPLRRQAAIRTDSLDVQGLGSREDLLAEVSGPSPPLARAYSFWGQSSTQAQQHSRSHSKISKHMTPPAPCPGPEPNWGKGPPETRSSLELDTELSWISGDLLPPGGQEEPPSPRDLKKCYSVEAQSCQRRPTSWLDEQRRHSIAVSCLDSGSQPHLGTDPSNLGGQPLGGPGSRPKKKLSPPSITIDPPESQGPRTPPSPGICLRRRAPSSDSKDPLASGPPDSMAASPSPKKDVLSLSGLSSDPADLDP
Method: (§1) HEK293 FlpIn T-Rex cells (Invitrogen, CA, United States) stably expressing human Cav3.1, Cav3.2, or Cav3.3 were maintained in Dulbecco’s Modified Eagle Medium (DMEM) supplemented with 10% foetal bovine serum (FBS), 1% penicillin-streptomycin (P/S) at 37°C, and 5% CO2 as previously described ([Bladen et al., 2021]; [Udoh et al., 2022]). Hygromycin (80 μg/mL) and blasticidin (15 μg/mL) were used as selection antibiotics and cells were passaged at 80% confluency. For experiments, cells were resuspended in Leibovitz’s L-15 media (containing 1% FBS, 1% P/S, 15 mM glucose, 2 μg/mL tetracycline), plated in black, clear-bottomed poly-D-lysine-coated 96-well plates (90 μL) (Corning, NY, United States), and incubated overnight in ambient air at 37°C. All compounds tested in cellular assays were prepared as stock solutions in DMSO and final DMSO concentration was 0.1%.
(§2) Intracellular calcium flux was measured using a fluorometric imaging plate-reader (FLIPR) Calcium 5 Assay Kit and FlexStation 3 Microplate Reader (Molecular Devices, San Jose, United States). Calcium 5 dye (90 μL) prepared in low potassium HBSS (Thermo Fisher Scientific) containing (in mM) 145 NaCl, 22 HEPES, 0.338 Na2HPO4, 4.17 NaHCO3, 0.441 KH2PO4, 0.407 MgSO4, 0.493 MgCl2, 1.26 CaCl2, 5.56 glucose, and […] with pH 7.4 was applied to each well and incubated for 1 h at 37°C, ambient air prior to testing.
(§3) Fluorescence readings were taken at 2 s intervals (λ excitation = 485 nm, λ emission = 525 nm). Following 2 min baseline reading, 20 μL of SB2193, SB2193F, or NNC 55-0396 (10 nM—10 μM) was added to cells and read for 5 min, then CaCl2 (10 mM) was added and read for 3 min. Baseline fluorescence averaged over the 20 s interval preceding CaCl2 addition was subtracted and normalized to the vehicle response. Changes in fluorescence were measured in relative fluorescence units (RFU). All compounds were assayed in ≥ five independent experiments (n = 5–8) performed in duplicate. Order of compound addition and location on the plate were varied between replicates. Data was fit to a four-parameter non-linear dose-response curve using GraphPad Prism 8.2.0 software (La Jolla, United States) to determine IC50 values.

human Cav3.2 = target: T2, human Cav3.2 (Homo sapiens, UniProt O95180); assay: FLIPR calcium flux assay, Cav3.2; assay type: cell-based
T2 construct: expressed in transfected cells; host or cells: HEK293 FlpIn T-Rex cells (Invitrogen)
Method: Intracellular calcium flux was measured using a fluorometric imaging plate-reader (FLIPR) Calcium 5 Assay Kit and FlexStation 3 Microplate Reader (Molecular Devices, San Jose, United States). […]
Fluorescence readings were taken at 2 s intervals (λ excitation = 485 nm, λ emission = 525 nm). […] Baseline fluorescence averaged over the 20 s interval preceding CaCl2 addition was subtracted and normalized to the vehicle response. Changes in fluorescence were measured in relative fluorescence units (RFU). […]

human Cav3.3 = target: T3, human Cav3.3 (Homo sapiens, UniProt Q9P0X4); assay: FLIPR calcium flux assay, Cav3.3; assay type: cell-based
T3 construct: expressed in transfected cells; host or cells: HEK293 FlpIn T-Rex cells (Invitrogen)
T3 sequence (Q9P0X4 whole entry): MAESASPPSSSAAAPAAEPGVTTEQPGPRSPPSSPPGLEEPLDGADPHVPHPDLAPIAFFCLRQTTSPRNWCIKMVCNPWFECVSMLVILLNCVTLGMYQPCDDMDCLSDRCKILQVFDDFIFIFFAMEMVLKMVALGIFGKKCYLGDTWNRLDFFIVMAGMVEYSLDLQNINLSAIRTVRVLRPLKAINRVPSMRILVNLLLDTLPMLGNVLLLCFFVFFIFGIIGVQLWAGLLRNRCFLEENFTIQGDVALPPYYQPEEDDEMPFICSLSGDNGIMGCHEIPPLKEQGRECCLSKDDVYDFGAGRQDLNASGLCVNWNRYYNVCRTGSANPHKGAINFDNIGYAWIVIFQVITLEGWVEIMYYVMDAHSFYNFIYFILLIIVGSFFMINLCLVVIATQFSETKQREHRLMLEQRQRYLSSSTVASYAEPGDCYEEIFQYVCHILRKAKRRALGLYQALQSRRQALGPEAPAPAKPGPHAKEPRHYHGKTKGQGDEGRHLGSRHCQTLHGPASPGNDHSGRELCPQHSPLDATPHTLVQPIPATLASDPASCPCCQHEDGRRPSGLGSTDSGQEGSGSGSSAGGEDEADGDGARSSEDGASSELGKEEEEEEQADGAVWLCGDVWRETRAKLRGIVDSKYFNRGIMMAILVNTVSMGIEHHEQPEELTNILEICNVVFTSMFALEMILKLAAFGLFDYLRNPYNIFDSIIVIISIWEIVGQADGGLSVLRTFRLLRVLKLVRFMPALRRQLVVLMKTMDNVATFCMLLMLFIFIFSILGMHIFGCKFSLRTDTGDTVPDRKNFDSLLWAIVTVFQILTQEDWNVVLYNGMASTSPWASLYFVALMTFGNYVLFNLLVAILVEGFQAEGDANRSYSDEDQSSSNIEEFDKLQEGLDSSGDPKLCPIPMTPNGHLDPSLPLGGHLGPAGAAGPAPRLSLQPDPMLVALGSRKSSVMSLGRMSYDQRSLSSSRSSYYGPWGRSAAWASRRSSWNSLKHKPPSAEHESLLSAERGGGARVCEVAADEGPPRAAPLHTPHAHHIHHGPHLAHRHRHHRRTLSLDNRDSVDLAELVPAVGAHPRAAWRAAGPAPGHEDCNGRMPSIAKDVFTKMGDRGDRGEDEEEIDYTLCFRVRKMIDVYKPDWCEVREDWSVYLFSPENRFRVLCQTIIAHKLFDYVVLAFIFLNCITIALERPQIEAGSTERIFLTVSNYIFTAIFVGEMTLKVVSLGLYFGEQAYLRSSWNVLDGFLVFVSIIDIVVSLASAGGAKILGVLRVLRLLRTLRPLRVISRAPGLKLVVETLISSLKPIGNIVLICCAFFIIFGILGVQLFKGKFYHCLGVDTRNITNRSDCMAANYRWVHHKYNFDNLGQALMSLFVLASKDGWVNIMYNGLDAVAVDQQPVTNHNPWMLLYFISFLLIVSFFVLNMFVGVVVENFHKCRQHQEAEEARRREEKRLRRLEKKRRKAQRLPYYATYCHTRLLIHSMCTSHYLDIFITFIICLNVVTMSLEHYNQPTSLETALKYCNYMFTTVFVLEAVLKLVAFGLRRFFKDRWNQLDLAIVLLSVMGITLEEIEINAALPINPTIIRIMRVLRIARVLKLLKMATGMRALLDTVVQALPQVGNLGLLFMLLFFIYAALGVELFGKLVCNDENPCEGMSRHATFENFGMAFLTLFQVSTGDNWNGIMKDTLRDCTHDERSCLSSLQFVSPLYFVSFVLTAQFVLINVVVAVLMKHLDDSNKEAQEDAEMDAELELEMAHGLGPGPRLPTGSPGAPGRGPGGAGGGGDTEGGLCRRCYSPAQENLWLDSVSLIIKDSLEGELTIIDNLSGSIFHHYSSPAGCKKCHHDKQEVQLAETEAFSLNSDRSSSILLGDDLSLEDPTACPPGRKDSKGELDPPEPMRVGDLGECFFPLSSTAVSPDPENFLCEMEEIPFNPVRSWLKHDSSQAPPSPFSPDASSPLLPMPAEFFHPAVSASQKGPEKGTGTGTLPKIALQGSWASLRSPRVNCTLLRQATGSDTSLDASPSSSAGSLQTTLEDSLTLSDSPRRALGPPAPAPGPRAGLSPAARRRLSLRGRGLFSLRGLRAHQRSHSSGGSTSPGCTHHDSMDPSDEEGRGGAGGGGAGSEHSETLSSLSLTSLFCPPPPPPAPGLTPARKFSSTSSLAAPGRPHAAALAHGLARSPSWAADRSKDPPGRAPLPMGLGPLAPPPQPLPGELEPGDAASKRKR
Method: as §1, §2, §3

[1] = Pharmacokinetics in mouse plasma and brain after single i.p. injection; assay type: in vivo; details: both sexes, 10 mg/kg i.p.; for Tmax / half-life / Cmax: wildtype F1, ip; for AUC: wildtype F1, mouse, 10 mg/kg
Method: SB2193 and SB2193F were prepared in ethanol-Tween 80%–0.9% saline (1:1:18 ratio) and valproic acid in 0.9% saline. All doses were completely soluble in this vehicle except for the 100 mg/kg SB2193 dose, which was a suspension.
Male and female wildtype F1 mice aged 21–28 days postnatal received a single i. p. injection of 10 mg/kg SB2193 or SB2193F. At selected timepoints (15–240 min), mice were anesthetised with isoflurane, blood was collected via cardiac puncture and whole brains were harvested. Brains were snap frozen on dry ice, and blood plasma was isolated via centrifugation (4,000 g for 10 min, 4^○C). Brain and plasma samples were stored at −80°C until assayed.
Plasma samples (50 μL) were spiked with an internal standard (diazepam) and vortexed with 1 M NaOH (50 μL) and methyl tert-butyl ether (1 mL) to achieve protein precipitation. The organic layer was isolated by centrifugation (4,000 g for 3 min) before being frozen for 60 min at −80°C, evaporated to dryness using N2, and reconstituted in 30% acetonitrile and 0.1% formic acid in water for analysis. Brain hemispheres were homogenised in a 10x w/v 1:1 methanol-water solution using a Biospec Tissue-Tearor (Bartlesville, United States) and centrifuged at 20,000 g for 30 min at 4°C. Supernatant (100 μL) was collected and prepared following the same method as plasma.
SB2193 and SB2193F concentrations in brain and plasma samples were assessed by high performance liquid chromatography-tandem mass spectrometry (HPLC-MS/MS) using a Shimadzu Nexera liquid chromatograph coupled with a Shimadzu 8,030 triple quadrupole mass spectrometer (Kyoto, Japan). Samples were run through a Zorbax C18 HPLC Column equipped with a Zorbax Eclipse XDB-C8 guard column (2.1 × 50 mm, 3.5 μm particle size; Agilent, Santa Clara, United States) with an injection volume of 10 μL using a gradient elution. Mobile phases of acetonitrile and 0.1% formic acid in water were delivered at a flow rate of 0.6 mL/min over 4.16 min, with a stepwise adjustment of mobile phase concentration gradient over time to optimise ion separation.
Quantification was achieved by comparing experimental samples to plasma and brain standards prepared with known concentrations of SB2193 or SB2193F. Samples were quantified against a 7-point standard curve (R ^2 > 0.98 for both analytes).
Concentrations of SB2193 or SB2193F in plasma and brain at each timepoint were averaged and concentration-time curves were generated using GraphPad Prism. Pharmacokinetic parameters were calculated using non-compartmental analysis. The linear-log trapezoidal method was used to calculate drug exposure (area under the curve, AUC) using equations previously described ([Hawkins et al., 2017]).

T-type channels = tested on: T-type channels; set-up: method as in Kevin et al., 2022; details: single 10 μM concentration, FLIPR calcium flux and whole-cell patch clamp, ref Kevin et al., 2022; cited from earlier work
[2] = tested on: cannabinoid CB1 receptors; set-up: method as in Kevin et al., 2022; details: ref Kevin et al., 2022; cited from earlier work
[3] = tested on: 6 Hz-induced seizures in Swiss mice; assay: 6 Hz seizure model in mice; assay type: in vivo, mouse; details: 300 mg/kg i.p., positive control, n = 10
Method: Swiss outbred mice used in 6 Hz seizure experiments were purchased from Australian Resources Centre (stock ARC(S); Canning Vale, Australia) and single housed for 1 week prior to experimentation to prevent fighting.
6 Hz seizures were induced in Swiss male mice (9–10 weeks old) using an Ugo Basile electroconvulsive therapy unit (Model 57,800; Gemonio, Italy). Mice were pre-treated with vehicle, SB2193 (10 mg/kg, 30 mg/kg, 100 mg/kg) or valproic acid (300 mg/kg) via i.p. injection 15 min before seizure induction based on the time-to-peak brain concentration determined in pharmacokinetic studies. […] A drop of 0.5% tetracaine was applied to both corneas immediately following the i.p. injection to provide local anaesthesia. Immediately prior to the electrical stimulation, saline was applied to each cornea to ensure electrical conductivity. Corneal electroshocks were administered at 44 mA, 6 Hz, 3 s shock duration, with a […] rectangular pulse width. Mice were shocked and scored by an observer blinded to treatment for the presence of twitching of the vibrissae, stun, myoclonus, rearing, forelimb clonus, and/or Straub tail. […] The ED50 for SB2193 was calculated using computer-assisted log-probit linear regression analysis ([Litchfield and Wilcoxon, 1949]). A χ^2 test was performed to assess statistical significance.

[4] = tested on: 6 Hz-induced seizures in Swiss mice; set-up: method as in Barton et al., 2001; details: 6 Hz model, ref Barton et al., 2001; cited from earlier work
[5] = FLIPR calcium flux, HEK293 cells, n = 5–8

## CC(C)(C)OC(=O)N1CCN(C(=O)c2cn(CCCCCF)c3ccccc23)CC1 [SB2193F]
Human Cav3.1
  IC50: 2300 nM
Human Cav3.2
  IC50: 3.16 µM
Human Cav3.3
  IC50: 8.6 µM
[1]; wildtype F1, brain/plasma, ip, mouse, read-out: brain-plasma ratio
  Kp: 0.48
[1]; mouse brain
  Tmax: ≤ 15 min
  half-life: 14 min
[1]; mouse brain, read-out: Cmax
  Cmax: 2300 ± 300 nM
[1]; mouse brain, read-out: Cmax (μg/mL)
  Cmax: 0.97 ± 0.1 µg/mL
[1]; mouse plasma
  Tmax: ≤ 15 min
  half-life: 23 min
[1]; mouse plasma, read-out: Cmax
  Cmax: 3100 ± 700 nM
[1]; mouse plasma, read-out: Cmax (μg/mL)
  Cmax: 1.3 ± 0.3 µg/mL
[1]; brain, ip, mouse brain, brain concentration converted assuming density of 1 g/mL
  AUC: 350 ng·h/mL
[1]; plasma, ip, mouse plasma
  AUC: 733 ng·h/mL
T-type channels
  inhibition of T-type channels: strongly inhibit
[2]
  activity at cannabinoid CB1 receptors: minimal activity

## CC(C)[C@H]1c2ccc(F)cc2CC[C@@]1(CCN(C)CCCc1nc2ccccc2[nH]1)OC(=O)C1CC1 [NNC 55-036, reference compound]
Human Cav3.1; [5]
  Cav3.1 pIC50: 5.9 ± 0.06
Human Cav3.1; FLIPR calcium flux, HEK293 cells, n = 5–8, read-out: Cav3.1 IC50
  IC50: 1300 nM
Human Cav3.3; [5]
  Cav3.3 pIC50: 5.9 ± 0.06
Human Cav3.3; FLIPR calcium flux, HEK293 cells, n = 5–8, read-out: Cav3.3 IC50
  IC50: 1.2 µM

## CCCC(CCC)C(=O)O [valproic acid, reference compound]
[3]
  protection from seizures compared to vehicle: significant protection

## CCC1(C)CC(=O)NC1=O (centres unmarked) [ethosuximide]
[4]
  ED50: > 600 mg/kg

## CCCCCn1cc(C(=O)N2CCN(C)CC2)c2ccccc21 [reference compound]
[2]
  activity at cannabinoid CB1 receptors: minimal activity
